Experimental data as given in patent publication US10398710B2, “Method for screening regulator of mitochondrial fission” (priority 2015, dated 2019).
Values after ≈ are worked out from the molar mass of the structure shown. Peptide text beside a SMILES is read from it. * marks the point of attachment. Cbz = O=C(OCc1ccccc1)*; CH2F = FC*

Experiments:
MCF-7 cells [1] = assay: WST-1 viability of MCF-7 cells treated with PPD-type ginsenoside compounds; type: cell-based, human; conditions: MCF-7, 0-200 μg/mL, 24 hours
Protocol: First, MCF-7 cells, a human breast cancer cell line, were inoculated in a DMEM culture medium containing 10% FBS and 1% penicillin/streptomycin, and were then cultured at conditions of 37° C. and 5% CO2. When the cultured MCF-7 cells were saturated, subculture thereof was followed in a three- to five-day interval.
The cultured MCF-7 cells were treated with the PPD-type ginsenoside compounds (F2, Rh2, C-K, or PPD) at various concentrations (0, 5, 10, 20, 50, 100, or 200 μg/mL) for 24 hours, and WST-1 analysis was then performed on the cells to measure viability thereof (FIG. 1). The WST-1 analysis was performed by inoculating each cell in a culture medium containing 10% EZ-Cytox and reacting at 37° C. for 1.5 hours, followed by measuring a level of water-soluble formazan dye produced by the viable cells as absorbance (450 nm) and analyzing the same to calculate the cell viability.

MCF-7 cells [2] = assay: WST-1 viability of MCF-7 cells pretreated with ginsenoside, then treated with doxorubicin or tamoxifen; type: cell-based; conditions: for effect on anticancer activity of doxorubicin / anticancer activity with doxorubicin compared to only doxorubicin: 10 μg/mL ginsenoside 12 hours; for effect on anticancer activity of doxorubicin: then 5 μg/mL doxorubicin 12 hours; for anticancer activity with doxorubicin compared to only doxorubicin: then doxorubicin 0-50 μg/mL 24 hours
Protocol: Specifically, 10 μg/mL of PPD-type ginsenoside compound (F2, Rh2, C-K, or PPD) was added to the MCF-7 cells and was cultured for 12 hours. 20 μM of tamoxifen or 5 μg/mL of doxorubicin was then treated, and 12 hours of culturing was performed. Upon completion of the culturing, viability of MCF-7 cells was compared via WST-1 analysis (FIG. 2a).
Accordingly, in order to investigate whether C-K or PPD has an effect on a treatment concentration of doxorubicin, 10 μg/mL of the PPD-type ginsenoside compound (C-K or PPD) was added and cultured for 12 hours. Doxorubicin at various concentrations (0, 0.1, 0.5, 1, 2, 5, 10, and 50 μg/mL) was then treated and cultured for 24 hours, followed by comparing viabilities of the MCF-7 cells and also comparing LC50 values calculated therefrom via WST-1 analysis (FIG. 2b).

MCF-7 cells [3] = assay: Western blot of apoptosis-related proteins (pJNK, cleaved-PARP, cleaved-caspase-9); type: cell-based, human; conditions: for level of cleaved-PARP, effect of ginsenoside treatment / level of cleaved-caspase-9, effect of ginsenoside treatment / level of pJNK, effect of ginsenoside treatment: 10 μg/mL ginsenoside with 5 μg/mL doxorubicin
Protocol: A culture medium containing 10 μg/mL of C-K or PPD was added to the MCF-7 cells, was cultured for 12 hours, and was then replaced with a culture medium containing 10 μg/mL of C-K or PPD and 0 g/mL or 5 μg/mL of doxorubicin, followed by 24 hours of culturing. The cultured cells were destroyed, and Western blot analysis was performed using a pJNK antibody, PARP antibody, cleaved-PARP antibody, caspase-9 antibody, or cleaved-caspase-9 antibody (FIG. 3a).
Accordingly, a culture medium containing 10 μg/mL of PPD was added to the MCF-7 cells, was cultured for 12 hours, and was then replaced with a culture medium containing 10 μg/mL of PPD and 5 μg/mL of doxorubicin, followed by 0, 0.5, 1, 2, 4, or 6 hours of culturing. Western blot analysis was performed using the cultured cells in the same manner as above (FIG. 3b). As a comparison group, cells cultured in a culture medium containing doxorubicin only was used instead of that containing both PPD and doxorubicin.

MCF-7 cells [4] = assay: Effect of PARP or caspase-9 inhibitor on the anticancer effect of doxorubicin with C-K or PPD; type: cell-based, human; conditions: for anticancer activity of doxorubicin under PARP activity inhibitor with ginsenoside: 10 μg/mL ginsenoside and 5 μg/mL doxorubicin; for anticancer effect of doxorubicin in cells treated with the inhibitor: all control and experiment groups, 5 μg/mL doxorubicin 24 hours
Protocol: Specifically, a culture medium containing 10 μg/mL of C-K or PPD was added to MCF-7 cells already treated with Z-LEHD-FMK, an inhibitor of caspase-9, or 3-AB, an inhibitor of PARP, was cultured for 12 hours, and was then replaced with a culture medium containing 10 μg/mL of C-K or PPD and 0 g/mL or 5 μg/mL of doxorubicin, followed by 24 hours of culturing. Western blot analysis was performed using the cultured cells in the same manner as above (FIG. 3c).

MCF-7 cells [5] = assay: Cytochrome-C release from mitochondria, immunofluorescent staining; type: cell-based, human; conditions: for increase in level of cytochrome-C release compared to doxorubicin alone / total cells from which cytochrome-C was released, ginsenoside and doxorubicin: 10 μg/mL ginsenoside 24 hours; for increase in level of cytochrome-C release compared to doxorubicin alone: then 5 μg/mL doxorubicin 4 hours; for total cells from which cytochrome-C was released, ginsenoside and doxorubicin: then 5 μg/mL doxorubicin
Protocol: A culture medium containing 10 μg/mL of C-K or PPD was added to MCF-7 cells, was cultured for 24 hours, and was then replaced with a culture medium containing 5 μg/mL of doxorubicin, followed by 0 or 4 hours of culturing. The cultured cells were fixed by adding 4% paraformaldehyde and were perforated by adding an 0.5% Triton X-100 solution, followed by 30 minutes of immunostaining using a cytochrome-C antibody. After staining, the cells were washed with PBS. Stained second antibodies were heated for 30 minutes and washed with PBS, followed by being recorded with a confocal microscope, to measure a level of fluorescence (FIG. 4a).
In this regard, whether the level of cytochrome-C release changes depending on treatment time of doxorubicin was investigated. In other words, a culture medium containing 10 μg/mL of C-K or PPD was added to MCF-7 cells, was cultured for 24 hours, and was then replaced with a culture medium containing 5 μg/mL of doxorubicin, followed by 0, 0.5, 1, 2, 4, or 6 hours of culturing. The immunofluorescent staining was performed in the same manner as previously described except the culturing time to measure the number of cytochrome-C released into cytoplasm from mitochondria (FIG. 4b). As a control group, an experiment group untreated with ginsenoside was used.

MCF-7 cells [6] = assay: Fluorescence staining of mitochondria with Tom-20; type: cell-based, human; conditions: 10 μg/mL, 24 hours, Tom-20 staining
Protocol: In other words, a culture medium containing 10 μg/mL of C-K or PPD was added to MCF-7 cells and was cultured for 24 hours. The cultured cells were fixed by adding 4% paraformaldehyde and were perforated by adding a 0.5% Triton X-100 solution, followed by staining the mitochondria using Tom-20. The stained cells were washed with PBS and were recorded with a confocal microscope to measure a level of fluorescence (FIG. 5a).

MCF-7 cells [7] = assay: Western blot of mitochondrial fission- and fusion-related proteins; type: cell-based, human; conditions: 10 μg/mL, 24 hours
Protocol: In this regard, Western blot analysis was performed for each cultured cell to compare an expression level of the mitochondrial fission-related proteins (Drp1, Fis1, or OPA-3) and mitochondrial fusion-related proteins (Mfn1. Mfn2, or OPA1) (FIG. 5b).

MCF-7 cells [8] = assay: WST-1 viability of siRNA-treated MCF-7 cells treated with doxorubicin or tamoxifen; type: cell-based, human; conditions: siRNA-treated MCF-7, 5 μM doxorubicin or 20 μM tamoxifen, 24 hours
Protocol: Meanwhile, each synthesized siRNA was inoculated into MCF-7 cells and was cultured for 12 hours. The cells were again cultured in a standard culture medium in which siRNA is not contained for 48 hours, followed by treating with 5 μM doxorubicin or 20 μM tamoxifen and culturing for 24 hours. After culturing, viabilities of the MCF-7 cells were measured via WST-1 analysis (FIG. 6b). As a control group, cells cultured without treating with doxorubicin or tamoxifen were used.

[9] = 10 μg/mL PPD and 5 μg/mL doxorubicin, 0-6 hours

Row | Compound | anticancer activity against breast cancer cells (viability) (MCF-7 cells [1]) | effect on anticancer activity of doxorubicin (MCF-7 cells [2]) | anticancer activity with doxorubicin compared to only doxorubicin (MCF-7 cells [2]) | level of cleaved-PARP, effect of ginsenoside treatment (MCF-7 cells [3]; 24 hours) | level of cleaved-caspase-9, effect of ginsenoside treatment (MCF-7 cells [3]; 24 hours) | level of pJNK, effect of ginsenoside treatment (MCF-7 cells [3]; 24 hours) | anticancer activity of doxorubicin under PARP activity inhibitor with ginsenoside (MCF-7 cells [4]) | increase in level of cytochrome-C release compared to doxorubicin alone (MCF-7 cells [5]) | total cells from which cytochrome-C was released, ginsenoside and doxorubicin (MCF-7 cells [5]; after 6 hours) [%] | state of mitochondria compared to negative control group (MCF-7 cells [6]) | expression level of mitochondrial fission-related protein OPA-3 (MCF-7 cells [7]) | expression level of mitochondrial fusion-related protein Mfn2 (MCF-7 cells [7]) | anticancer effect of doxorubicin in cells treated with the inhibitor (MCF-7 cells [4]) | anticancer activity on cells with mitochondrial fission (MCF-7 cells [8]) | change of anticancer activity depending on siRNA (Mfn2 inhibited compared to Mfn1 inhibited) (MCF-7 cells [8]) | also measured
1 | CC(C)=CCC[C@](C)(O[C@@H]1OC(CO)[C@@H](O)C(O)C1O)C1CC[C@]2(C)C1[C@H](O)CC1[C@@]3(C)CCC(O)C(C)(C)C3CC[C@]12C (some centres unmarked) [C-K, compound-K] | relatively excellent anticancer activity | could enhance an anticancer activity by doxorubicin | increased | not affected | noticeably increased | not affected | somewhat recovered | higher | 20 | damaged | increased | decreased |  |  |  | 
2 | NC(=O)c1cccc(N)c1 [PARP inhibitor, 3-AB, reference compound] |  |  |  |  |  |  |  |  |  |  |  |  | inhibited |  |  | 
3 | CC(C)=CCC[C@](C)(O)[C@H]1CC[C@]2(C)[C@@H]1[C@H](O)C[C@@H]1[C@@]3(C)CC[C@H](O)C(C)(C)[C@@H]3CC[C@]12C [PPD, protopanaxadiol] | relatively excellent anticancer activity | could enhance an anticancer activity by doxorubicin | increased | not affected | significantly increased | not affected | somewhat recovered | higher | 43 | damaged | increased | decreased |  |  |  | formation of cleaved-PARP over time compared to doxorubicin only (MCF-7 cells [3]; [9]): faster; formation of cleaved-caspase-9 over time compared to doxorubicin only (MCF-7 cells [3]; [9]): faster
4 | COC(=O)CC[C@H](NC(=O)[C@H](CC(C)C)NC(=O)OCc1ccccc1)C(=O)N[C@@H](Cc1cnc[nH]1)C(=O)N[C@@H](CC(=O)OC)C(=O)CF [caspase-9 inhibitor, Z-LEHD-FMK, reference compound] (Cbz-LE(OMe)HD(OMe)-CH2F) |  |  |  |  |  |  |  |  |  |  |  |  | inhibited |  |  | 
5 | COc1cccc2c1C(=O)c1c(O)c3c(c(O)c1C2=O)C[C@@](O)(C(=O)CO)C[C@@H]3O[C@H]1C[C@H](N)[C@H](O)[C@H](C)O1 [doxorubicin, reference compound] |  |  |  |  |  |  |  |  |  |  |  |  |  | significantly higher anticancer activity | significantly increased | CC50 (MCF-7 cells [2]; Homo sapiens, MCF7, 24 h, read-out: LC50): ~10 µg/mL (≈ 18.4 µM); level of cleaved-PARP (MCF-7 cells [3]; 5 μg/mL doxorubicin, 24 hours): increased; level of cleaved-caspase-9 (MCF-7 cells [3]; 5 μg/mL doxorubicin, 24 hours): increased; level of pJNK (MCF-7 cells [3]; 5 μg/mL doxorubicin, 24 hours): increased; level of cytochrome-C release compared to no doxorubicin (MCF-7 cells [5]; 5 μg/mL doxorubicin, 4 hours): increased; total cells from which cytochrome-C was released (MCF-7 cells [5]; only doxorubicin 5 μg/mL, after 6 hours): 7%
6 | CC/C(=C(\c1ccccc1)c1ccc(OCCN(C)C)cc1)c1ccccc1 [tamoxifen] |  |  |  |  |  |  |  |  |  |  |  |  |  | showed the anticancer activity | no difference | 
